According to ChEMBL document CHEMBL3885861, “Open TG-GATES”:

Organism: Rattus norvegicus
Assay: Open TG-GATES - Regimen: Single
Format: toxicity, organism-based, Sprague-Dawley
Set-up: regimen Single, gender Male, age 6 weeks
Conditions: in vivo, po, 0 mg/kg, route gavage, dose level Control; for APTT / Bas / Eos / Fbg / Hb / Ht / Lym / MCH / MCHC / MCV / Mono / Neu / PT / Plat / RBC / Ret / WBC: tissue Blood; for KIDNEY_L / KIDNEY_R / KIDNEY_TOTAL: tissue Kidney; for LIVER: tissue Liver; for A/G / ALP / ALT / AST / BUN / CRE / Ca / Cl / DBIL / GLC / IP / K / LDH / Na / PL / RALB / TBIL / TC / TG / TP / gamma-GTP: tissue Plasma

CCc1cc(C(N)=S)ccn1 [ETHIONAMIDE]
TERMINAL_BW (3 h): 229.3 g
APTT (3 h): 16.6 s
Bas (3 h): 0%
Eos (3 h): 1%
Fbg (3 h): 213.4 mg/dL
Hb (3 h): 14 g/dL
Ht (3 h): 41.5%
Lym (3 h): 80.2%
MCH (3 h): 22.1 pg
MCHC (3 h): 33.8%
MCV (3 h): 65.5 fL
Mono (3 h): 7.2%
Neu (3 h): 11.6%
PT (3 h): 11.7 s
Plat (3 h): 118.5 x10_4/uL
RBC (3 h): 635.2 x10_4/ul
Ret (3 h): 7.7%
WBC (3 h): 98.2 x10_2/uL
KIDNEY_L (3 h): 1 g
KIDNEY_R (3 h): 1.1 g
KIDNEY_TOTAL (3 h): 2.1 g
LIVER (3 h): 11.4 g
A/G (3 h): 1.8
ALP (3 h): 831 IU/L
ALT (3 h): 31.8 IU/L
AST (3 h): 64.6 IU/L
BUN (3 h): 13.6 mg/dL
CRE (3 h): 0.6 mg/dL
Ca (3 h): 10.9 mg/dL
Cl (3 h): 104.8 meq/L
DBIL (3 h): 0.006 mg/dL
GLC (3 h): 192.4 mg/dL
IP (3 h): 8.2 mg/dL
K (3 h): 4.6 meq/L
LDH (3 h): 72.6 IU/L
Na (3 h): 141 meq/L
PL (3 h): 152.2 mg/dL
RALB (3 h): 3.5 g/dL
TBIL (3 h): 0.3 mg/dL
TC (3 h): 82 mg/dL
TG (3 h): 86.2 mg/dL
TP (3 h): 5.4 g/dL
gamma-GTP (3 h): 1 IU/L
TERMINAL_BW (6 h): 223.7 g
APTT (6 h): 18.2 s
Bas (6 h): 0%
Eos (6 h): 1%
Fbg (6 h): 221.6 mg/dL
Hb (6 h): 14.1 g/dL
Ht (6 h): 41.9%
Lym (6 h): 80.6%
MCH (6 h): 21.8 pg
MCHC (6 h): 33.5%
MCV (6 h): 65.2 fL
Mono (6 h): 7.6%
Neu (6 h): 11.2%
PT (6 h): 12.1 s
Plat (6 h): 124.1 x10_4/uL
RBC (6 h): 644 x10_4/ul
Ret (6 h): 7.8%
WBC (6 h): 114.3 x10_2/uL
KIDNEY_L (6 h): 1 g
KIDNEY_R (6 h): 1 g
KIDNEY_TOTAL (6 h): 2 g
LIVER (6 h): 10.5 g
A/G (6 h): 1.6
ALP (6 h): 729.4 IU/L
ALT (6 h): 29.6 IU/L
AST (6 h): 63.6 IU/L
BUN (6 h): 12 mg/dL
CRE (6 h): 0.5 mg/dL
Ca (6 h): 11 mg/dL
Cl (6 h): 104 meq/L
DBIL (6 h): 0 mg/dL
GLC (6 h): 187.6 mg/dL
IP (6 h): 9.4 mg/dL
K (6 h): 5 meq/L
LDH (6 h): 87.8 IU/L
Na (6 h): 139 meq/L
PL (6 h): 150 mg/dL
RALB (6 h): 3.3 g/dL
TBIL (6 h): 0.4 mg/dL
TC (6 h): 82.4 mg/dL
TG (6 h): 86.6 mg/dL
TP (6 h): 5.4 g/dL
gamma-GTP (6 h): 1.2 IU/L
TERMINAL_BW (9 h): 223.4 g
APTT (9 h): 17.3 s
Bas (9 h): 0%
Eos (9 h): 1%
Fbg (9 h): 213.8 mg/dL
Hb (9 h): 13.9 g/dL
Ht (9 h): 41%
Lym (9 h): 71%
MCH (9 h): 21.8 pg
MCHC (9 h): 33.9%
MCV (9 h): 64.3 fL
Mono (9 h): 7%
Neu (9 h): 21.4%
PT (9 h): 12.1 s
Plat (9 h): 115.1 x10_4/uL
RBC (9 h): 639.6 x10_4/ul
Ret (9 h): 7.9%
WBC (9 h): 97.9 x10_2/uL
KIDNEY_L (9 h): 1.1 g
KIDNEY_R (9 h): 1 g
KIDNEY_TOTAL (9 h): 2.1 g
LIVER (9 h): 9.8 g
A/G (9 h): 1.9
ALP (9 h): 759.2 IU/L
ALT (9 h): 31.2 IU/L
AST (9 h): 59.2 IU/L
BUN (9 h): 13.2 mg/dL
CRE (9 h): 0.5 mg/dL
Ca (9 h): 10.4 mg/dL
Cl (9 h): 107 meq/L
DBIL (9 h): 0.024 mg/dL
GLC (9 h): 194.8 mg/dL
IP (9 h): 10.2 mg/dL
K (9 h): 4.7 meq/L
LDH (9 h): 66.6 IU/L
Na (9 h): 143.4 meq/L
PL (9 h): 126.8 mg/dL
RALB (9 h): 3.6 g/dL
TBIL (9 h): 0.4 mg/dL
TC (9 h): 65.8 mg/dL
TG (9 h): 47.8 mg/dL
TP (9 h): 5.4 g/dL
gamma-GTP (9 h): 1.2 IU/L
TERMINAL_BW (24 h): 237.2 g
APTT (24 h): 16.3 s
Bas (24 h): 0%
Eos (24 h): 1.2%
Fbg (24 h): 214.4 mg/dL
Hb (24 h): 13.9 g/dL
Ht (24 h): 41.1%
Lym (24 h): 75.6%
MCH (24 h): 21.8 pg
MCHC (24 h): 33.7%
MCV (24 h): 64.7 fL
Mono (24 h): 7.6%
Neu (24 h): 15.6%
PT (24 h): 11.7 s
Plat (24 h): 117.8 x10_4/uL
RBC (24 h): 635.6 x10_4/ul
Ret (24 h): 7.8%
WBC (24 h): 117.6 x10_2/uL
KIDNEY_L (24 h): 1 g
KIDNEY_R (24 h): 1 g
KIDNEY_TOTAL (24 h): 2.1 g
LIVER (24 h): 11.8 g
A/G (24 h): 1.9
ALP (24 h): 856.4 IU/L
ALT (24 h): 40.8 IU/L
AST (24 h): 70.6 IU/L
BUN (24 h): 20 mg/dL
CRE (24 h): 0.6 mg/dL
Ca (24 h): 11 mg/dL
Cl (24 h): 104.4 meq/L
DBIL (24 h): 0.016 mg/dL
GLC (24 h): 200.2 mg/dL
IP (24 h): 8.1 mg/dL
K (24 h): 4.7 meq/L
LDH (24 h): 77.8 IU/L
Na (24 h): 141.2 meq/L
PL (24 h): 151.8 mg/dL
RALB (24 h): 3.6 g/dL
TBIL (24 h): 0.3 mg/dL
TC (24 h): 79.8 mg/dL
TG (24 h): 90.6 mg/dL
TP (24 h): 5.5 g/dL
gamma-GTP (24 h): 1.6 IU/L
